Holding throughout (test): growth of human tumour cells (NCI), 48 h
In assay [1] the test system is A498 renal.
Assay [2] relates to A549 NSCLC.
The test system of assay [3] is COLO 205 colon.
In assay [4] the test system is DU-145 prostate.
Assay [5] has as its system HCC-2998 colon.
For assay [6], the system named is M14 melanoma.
The test system of assay [7] is MALME-3M melanoma.
For assay [8], the system named is RPMI-8226 leukemia.
Assay [9] has as its system SNB-19 CNS.
For assay [10], the system named is TK-10 renal.

Values joined by “and” are separate entries in the source; they are usually repeats but may differ in a detail not shown here. Equal values may be shown once.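 Following 48 hours of exposure in 96-well plates, responses at five concentrations were used to interpolate endpoints linearly. GI50 = concentration required for 50% inhibition of growth. TGI marks complete inhibition of growth.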

For the molecule `O=C(Nc1ccc(O)c(NS(=O)(=O)c2ccc(F)cc2)c1)c1ccc(-c2ccccc2)cc1`, the GI50 in [1] is 13.4 µM; in assay [2], 4.81 µM; in assay [3], 15.6 µM; in assay [4], 11.7 µM; in [5], 17.5 µM; in [6] it was 7.32 µM. Further, the GI50 in assay [7] is 11.5 µM; in assay [8], 2.87 µM; in assay [9], 14.4 µM; in assay [10] it was 11.9 µM. The TGI in [1] was 26.7 µM; in assay [2], 29.9 µM; in assay [3] it was 31.2 µM; in assay [4], 26.3 µM; in assay [5], 45.3 µM; in assay [6], 21.6 µM. In addition, the TGI in assay [7] amounted to 23.9 µM; in assay [8], 18.2 µM; in [9] it was 34.2 µM; in assay [10], 30.3 µM.
`O=C(Nc1ccc(Cl)cc1F)c1cc(Cl)ccc1O`: the GI50 was 0.26 µM in assay [1]; 1.34 µM in assay [2]; 2.41 µM in assay [3]; 0.915 µM in assay [4]; 2.23 µM in assay [5]; 0.437 µM in assay [6]. Further, the GI50 is 0.256 µM in [7], 0.302 µM in [8], 0.413 µM in assay [9] and 1.31 µM in assay [10]. In addition, the TGI in [1] was 0.924 µM; in [2], > 100 µM; in assay [3], 5.92 µM; in [4], > 42.8 µM; in assay [5] it was 8.77 µM; in assay [6], 2.78 µM. Also, the TGI in assay [7] was 1.17 µM; in assay [8], 1.75 µM; in [9] it was > 100 µM; in assay [10] it was > 31.2 µM.
Turning to `CNC(=O)c1c(NC(=O)c2ccc(C(C)C)cc2)sc2c1CCC(=O)C2`, the GI50 in assay [1] is 0.715 µM; in assay [2], 0.401 µM; in assay [3], 0.288 µM; in assay [4], 3.25 µM; in assay [5] it was 0.906 µM; in assay [6], 0.454 µM. In addition, the GI50 in assay [7] is 0.891 µM; in assay [8] it was 0.114 µM; in assay [9] it was 0.453 µM; in [10], 0.504 µM. For the same molecule, the TGI in assay [1] came to 3.78 µM; in assay [2], 5.45 µM; in assay [3], 0.914 µM; in assay [4], 12.2 µM; in assay [5], 2.94 µM; in assay [6], 2.03 µM. The TGI was 2.94 µM in assay [7], 0.675 µM in [8], 5.71 µM in [9] and 13 µM in assay [10].
Turning to `COc1cc(/C=N/Nc2ncnc3c2cnn3Cc2ccccc2)ccc1O`, the GI50 in [1] was > 18.3 µM; in assay [2], 8.69 µM; in assay [3], 10.6 µM; in [4], 12.2 µM; in assay [5] it was 15.2 µM; in [6], > 25 µM. The GI50 in assay [7] is 7.14 µM; in assay [8], > 18.5 µM; in [9] it was 9.22 µM; in assay [10], 6.39 µM. For the same molecule, the TGI in assay [1] is > 25 µM; in [2], > 23.9 µM; in [3], > 25 µM; in [4], > 25 µM; in [5], > 25 µM; in assay [6], > 25 µM. For the same molecule, the TGI in assay [7] is > 25 µM; in assay [8], > 25 µM; in assay [9], > 25 µM; in assay [10], 19.1 µM.
Take `CC(=O)Nc1ccc(S(=O)(=O)c2ccc(NC(C)=O)cc2)cc1`: the GI50 in assay [1] is 81.4 µM; in assay [2] it was > 100 µM; in assay [3], > 100 µM; in assay [4], > 100 µM; in assay [5] it was > 100 µM; in [6], > 100 µM. Moreover, the GI50 in assay [7] was 34.5 µM; in assay [8] it was > 100 µM; in assay [10], > 100 µM. In addition, the TGI in assay [1], in assay [2], in [3], in [4], in assay [5] and in assay [6] was > 100 µM each time. Further, the TGI in assay [7], in assay [8] and in assay [10] was > 100 µM each time.
For the molecule `CN1CCN(CCCN2c3ccccc3Sc3ccc(C(F)(F)F)cc32)CC1`, the GI50 in assay [1] is 2.4 µM; in assay [2], 2.31 µM; in assay [3], 1.64 µM and 1.8 µM and 3.87 µM; in assay [4] it was 2.39 µM; in assay [5], 1.42 µM and 1.64 µM and 3.82 µM; in [7], 1.69 µM. Moreover, the GI50 in [8] is 2.21 µM and 2.06 µM and 6.37 µM; in [9] it was 1.86 µM; in assay [10], 1.78 µM and 4.01 µM and 11.6 µM. Further, the TGI was 12.9 µM and 29.5 µM and 26.7 µM in [1]; 6.47 µM and 24.5 µM and 25.2 µM in assay [2]; 3.15 µM and 3.65 µM and 9.3 µM in assay [3]; 5.48 µM and 23.3 µM and 30.1 µM in [4]; 3.02 µM and 3.21 µM and 8.68 µM in assay [5]; 3.53 µM and 3.38 µM and 3.35 µM in assay [6]. For the same molecule, the TGI in [7] was 3.28 µM and 3.66 µM and 6.98 µM; in assay [8], 5.09 µM and 22.1 µM; in assay [9], 4.45 µM and 26.8 µM and 29.3 µM; in assay [10], 3.23 µM and 12.1 µM and 24.8 µM.
As for `CCc1cccc(CC)c1NC(=O)c1ccn2c1CCc1cnc(Nc3ccc(N4CCN(C)CC4)cc3OC)nc1-2`, the GI50 in assay [1] is 10.9 µM; in assay [2], 2.17 µM; in assay [3] it was 0.0231 µM; in assay [4] it was 2.6 µM; in assay [5], 2.28 µM; in [6] it was 1.59 µM. In addition, the GI50 is 1.87 µM in assay [7], 1.92 µM in assay [8], 3.57 µM in [9] and 2.93 µM in assay [10]. Moreover, the TGI was 23.5 µM in assay [1]; 42 µM in [2]; 2.36 µM in [3]; 15.8 µM in [4]; 8.63 µM in [5]; 3.62 µM in [6]. Further, the TGI in [7] worked out at 3.8 µM; in assay [8], 6.58 µM; in assay [9], 15.2 µM; in [10], 16.2 µM.

Values taken from PubChem BioAssay (NCI).
